Patent US20160017399A1, “ELECTROCHEMICAL-BASED ANALYTICAL TEST STRIP WITH ENZYMATIC REAGENT LAYER CONTAINING A NAPHTHOQUINONE-BASED MEDIATOR AND FAD-GDH” (LifeScan Scotland Limited, priority 2014, published 2016)
Like-named read-outs stand apart in the source and are kept apart here.

Key:
[1] = solubility at room temperature; assay type: physicochemical
Source text: Compound A is an orange amorphous solid, soluble in base and neutral phosphate buffer at room temperature. Compound A has the following beneficial electrochemical characteristics: • E0=0.086V vs Ag/AgCl (0.1M KCl) • kcat=900 s^−1 where E0 is the formal redox potential vs Ag/AgCl (compare to 0.25V for ferricyanide) and kcat is the rate constant for homogeneous electron transfer between the mediator (i.e., Compound A) and enzyme cofactor FAD. It is noted that E0 for ferricyanide is 0.25V and kcat for ferricyanide is 230 s^−1. Compound A has both an E0 that is beneficially lower than that of ferricyanide (and thus less is less susceptible to interferents) and a kcat that is beneficially higher than that of ferricyanide.
Compound B is an orange amorphous solid, soluble in base and neutral phosphate buffer at room temperature. […] has the following beneficial electrochemical characteristics: • E0=0.016V vs Ag/AgCl (0.1M KCl) • kcat=100 s^−1 where E0 is the formal redox potential vs Ag/AgCl (compare to 0.25V for ferricyanide) and kcat is the rate constant for homogeneous electron transfer between the mediator (i.e., Compound A) and enzyme cofactor FAD. It is noted that E0 for ferricyanide is 0.25V and kcat for ferricyanide is 230 s^−1. […]

[2] = storage stability (glucose sensitivity after storage); assay type: physicochemical; settings: storage for 26 days at 40 degrees Celsius

solubility [1] | reduction in glucose sensitivity after storage [2] | solubility ([1]; in base and neutral phosphate buffer at room temperature) | Structure (SMILES)
soluble | no reduction in glucose sensitivity |  | O=C1C=C(SCCCS(=O)(=O)O)c2ccccc2C1=O [Compound A, 1,2-naphthalenedione-4-(3-mercapto-1-propanesulfonic acid)]
 | no reduction in glucose sensitivity | soluble | O=C(O)CCSC1=CC(=O)C(=O)c2ccccc21 [Compound B, 1,2-naphthalenedione-4-(3-mercaptopropionic acid)]
